Measured values published in patent US11464770B2, “Anticancer pharmaceutical composition” (NATIONAL CANCER CENTER, priority 2016, dated 2022).
Read-outs that look alike come from different tables or passages of the source.

Tests used:
[1] = tested on: cervical carcinoma cell lines; test: Cell based assay, cell viability (CellTiter-Glo), cervical carcinoma cell lines; settings: Homo sapiens; HeLa cells
[2] = tested on: blood cancer cell lines (e.g. HL-60, Jurkat, Raji, Ramos, Daudi, MOLT-4); test: Cell based assay, cell viability (CellTiter-Glo), blood cancer cell lines; settings: Homo sapiens
Method in brief: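 Commercial tumour lines, detached with trypsin-EDTA, were seeded and incubated 24 h. They were then dosed to 0–2 μM final, grown 72 h, and assessed for viability using CellTiter-Glo.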

[3] = MV4-11, blood cancer cell line MV-4-11, 72 hours, read-out: IC50, MV-4-11
[4] = blood cancer cell line Daudi, 72 hours, read-out: IC50, Daudi
[5] = blood cancer cell line HL-60, 72 hours, read-out: IC50, HL-60
[6] = blood cancer cell line Jurkat, 72 hours, read-out: IC50, Jurkat
[7] = blood cancer cell line MOLT-4, 72 hours, read-out: IC50, MOLT-4
[8] = blood cancer cell line Raji, 72 hours, read-out: IC50, Raji
[9] = blood cancer cell line Ramos (RA 1), 72 hours, read-out: IC50, Ramos (RA 1)
[10] = blood cancer cell line U-937, 72 hours, read-out: IC50, U-937

Structure (SMILES) | IC50 [1] | IC50 [2, 3] | IC50 [2, 4] | IC50 [2, 5] | IC50 [2, 6] | IC50 [2, 7] | IC50 [2, 8] | IC50 [2, 9] | IC50 [2, 10]
CC(=O)c1c([S+]([O-])Cc2ccc(F)cc2F)[nH]c2c(Br)ccc(Cl)c2c1=O (stereo not drawn) [Compound 29, 3-acetyl-8-bromo-5-chloro-2-((2,4-difluorobenzyl)sulfinyl)quinolin-4(1H)-one] | > 10000 nM | 1400 nM | > 2000 nM | 1720 nM | 1080 nM | 1440 nM | 1180 nM | 1670 nM | 1050 nM
CC(=O)c1c([S+]([O-])Cc2ccc(F)c(Cl)c2)[nH]c2c(Br)ccc(Cl)c2c1=O (stereo not drawn) [Compound 31, 3-acetyl-8-bromo-5-chloro-2-((3-chloro-4-fluorobenzyl)sulfinyl)quinolin-4(1H)-one] | > 10000 nM | > 2000 nM | 1650 nM | 1930 nM | 940 nM | 1350 nM | 1100 nM | 1830 nM | > 2000 nM
CC(=O)c1c(S(=O)(=O)Cc2ccccc2)[nH]c2c(Br)ccc(Cl)c2c1=O [Compound 34, 3-acetyl-2-(benzylsulfonyl)-8-bromo-5-chloroquinolin-4(1H)-one] | > 10000 nM | > 2000 nM | > 2000 nM | > 2000 nM | > 2000 nM | > 2000 nM | > 2000 nM | > 2000 nM | > 2000 nM
CC(=O)c1c([S+]([O-])Cc2cc(Cl)ccc2Cl)[nH]c2c(Br)ccc(Cl)c2c1=O (stereo not drawn) [Compound 44, 3-acetyl-8-bromo-5-chloro-2-((2,5-dichlorobenzyl)sulfinyl)quinolin-4(1H)-one] | > 10000 nM | 1980 nM | 1800 nM | 1730 nM | 1130 nM | 1470 nM | 1160 nM | 1930 nM | > 2000 nM
CC(=O)c1c([S+]([O-])Cc2cc(F)cc(F)c2)[nH]c2c(Br)ccc(Cl)c2c1=O (stereo not drawn) [Compound 46, 3-acetyl-8-bromo-5-chloro-2-((3,5-difluorobenzyl)sulfinyl)quinolin-4(1H)-one] | > 10000 nM | > 2000 nM | > 2000 nM | > 2000 nM | > 2000 nM | > 2000 nM | > 2000 nM | > 2000 nM | > 2000 nM
CC(=O)c1c([S+]([O-])Cc2cccc(F)c2)[nH]c2c(Br)ccc(Cl)c2c1=O (stereo not drawn) [Compound 50, 3-acetyl-8-bromo-5-chloro-2-((3-fluorobenzyl)sulfinyl)quinolin-4(1H)-one] | > 10000 nM | > 2000 nM | > 2000 nM | > 2000 nM | 1200 nM | 1660 nM | 1410 nM | > 2000 nM | > 2000 nM
CC(=O)c1c([S+]([O-])Cc2cc(C)on2)[nH]c2c(Br)ccc(Cl)c2c1=O (stereo not drawn) [Compound 51, 3-acetyl-8-bromo-5-chloro-2-(((5-methylisoxazol-3-yl)methyl)sulfinyl)quinolin-4(1H)-one] | > 10000 nM | 680 nM | 1660 nM | 950 nM | 850 nM | 1440 nM | 760 nM | 1070 nM | 630 nM
COc1cccc(C[S+]([O-])c2[nH]c3c(Br)ccc(Cl)c3c(=O)c2C(C)=O)c1 (stereo not drawn) [Compound 55, 3-acetyl-8-bromo-5-chloro-2-((3-methoxybenzyl)sulfinyl)quinolin-4(1H)-one] | > 10000 nM | > 2000 nM | > 2000 nM | > 2000 nM | 1300 nM | 1470 nM | > 2000 nM | > 2000 nM | > 2000 nM
CC(=O)c1c([S+]([O-])Cc2ccc([N+](=O)[O-])cc2)[nH]c2c(Cl)ccc(Cl)c2c1=O (stereo not drawn) [Compound 57, 3-acetyl-5,8-dichloro-2-((4-nitrobenzyl)sulfinyl)quinolin-4(1H)-one] | > 10000 nM | > 2000 nM | > 2000 nM | > 2000 nM | > 2000 nM | > 2000 nM | > 2000 nM | > 2000 nM | > 2000 nM
COc1cc(C[S+]([O-])c2[nH]c3c(Br)ccc(Cl)c3c(=O)c2C(C)=O)cc(OC)c1 (stereo not drawn) [Compound 59, 3-acetyl-8-bromo-5-chloro-2-((3,5-dimethoxybenzyl)sulfinyl)quinolin-4(1H)-one] | > 10000 nM | 1560 nM | > 2000 nM | 1990 nM | 1010 nM | 1380 nM | 1150 nM | > 2000 nM | > 2000 nM
CC(=O)c1c([S+]([O-])Cc2ccc(C(C)(C)C)cc2)[nH]c2c(Br)ccc(Cl)c2c1=O (stereo not drawn) [Compound 60, 3-acetyl-8-bromo-2-((4-(tert-butyl)benzyl)sulfinyl)-5-chloroquinolin-4(1H)-one] | > 10000 nM | > 2000 nM | > 2000 nM | > 2000 nM | 1270 nM | 1630 nM | > 2000 nM | > 2000 nM | > 2000 nM
CC(=O)c1c([S+]([O-])Cc2ccc([S+]([O-])C(F)(F)F)cc2)[nH]c2c(Br)ccc(Cl)c2c1=O (stereo not drawn) [Compound 64, 3-acetyl-8-bromo-5-chloro-2-((4-((trifluoromethyl)sulfinyl)benzyl)sulfinyl)quinolin-4(1H)-one] | > 10000 nM | 1120 nM | > 2000 nM | 1500 nM | 1070 nM | 1460 nM | 1090 nM | 1850 nM | > 2000 nM
